Like-named read-outs stand apart in the source and are kept apart here.
Assays:
astrocytes [1] = assay: Scratch wound assay (astrocyte migration); format: cell-based, Wistar rat; conditions: for ability of astrocytes to close the wound: PDM, n = 6, triplicates; for wound closure: monitored 72 hr, n = 5, triplicates
Procedure: A wound recovery assay was carried out to analyze the migration of astrocytes using the IncuCyte system (Essen BioScience Inc., Ann Arbor, MI). Primary astrocytes were seeded in ImageLock 96‐well plates (4,379, Essen BioScience) at a density of 4 × 10^4 per well. After 24 hr, standardized and reproducible (700–800 μm wide) scratch “wounds” were created in all wells using a dedicated device. Cultures were exposed to different testing conditions, for example, stressors, and were maintained and imaged at hourly intervals up to 72 hr.
Cell density was measured in the scratch area and compared to undisrupted adjacent monolayer. Relative wound density (%), a measure of wound recovery, was calculated using the formula: Relative wound density (%) = (Density of wound region at certain time point – Initial density of wound region)/(Density of intact cell region at certain time point − Initial density of wound) × 100%.

primary astrocytes = conditions: 5 hr, LDH 24 hr later, PDM
Procedure: Primary cultures of astrocytes were prepared from the cerebral cortices, cerebellum, and brainstem from Wistar rat pups (P2) following protocols described previously (1–3). Briefly, the brains of Wistar P2 pups were dissected out, crudely cross‐chopped and bathed in a solution containing HBSS, DNase I (0.04 mg/mL), trypsin from bovine pancreas (0.25 mg/mL) and BSA (3 mg/mL). The preparation was agitated at 37 °C for 15 min. Trypsinization of the brain tissue was terminated by the addition of equal volumes of culture media comprised of DMEM, 10% heat‐inactivated FBS, 100 U/mL penicillin, and 0.1 mg/mL streptomycin and then centrifuged at 2000 rpm, at room temperature (RT) for 10 min. The supernatant was aspirated, and the remaining pellet was resuspended in 15 mL HBSS containing BSA (3 mg/mL) and DNase I (0.04 mg/mL) and triturated gently. After the cell debris had settled, the cell suspension was filtered through a 40‐μm cell strainer (BD Falcon, BD Biosciences, Franklin Lakes, NJ) and cells were collected after centrifugation. Cells were seeded in a T75 flask containing culture media (see above) and maintained at 37 °C with 5% CO2. Once the cultures reached confluence and 1 week later, the flasks were mildly shaken overnight to remove microglia and oligodendrocytes. When astrocytes were seeded for experiments, media was changed to DMEM supplemented with 5% FBS instead of 10% FBS.
Lactate dehydrogenase (LDH) release from damaged cells was assessed colorimetrically with LDH Cytotoxicity Assay Kit (Pierce) according to the manufacturer's instructions. Activity is proportional to colorimetric reduction of tetrazolium salt measured at 490 nm. Cytotoxicity was normalized to maximal LDH activity as released from cells acutely exposed to Triton X‐100, and calculated using the formula: % Cytotoxicity = (Compound‐treated LDH activity – Spontaneous LDH activity)/(Maximum LDH activity – Spontaneous LDH activity) × 100%.
The media was then replaced by fresh PDM with or without TX14(A). Cells were incubated for a further 24 hr before carrying out the LDH reaction on 50 μL of media.

astrocytes [2] = assay: DAPI staining, astrocyte cell number; format: cell-based, Wistar rat; conditions: for cell numbers (DAPI) vs control: n = 4, triplicates, Dunnett's
Procedure: Astrocytes were seeded in 96‐well plate (1 × 10^4 per well) and fixed in 4% paraformaldehyde for 5 min, washed in PBS three times for 5 min each time before and after incubating with 1 μg/mL DAPI for 10 min. Round and whole nuclei in nine fields of view per well were counted using ImageJ (NIH, Bethesda, MD).

[3] = target: GPR37 (rat, endogenous in astrocytes) (rat (endogenous in primary astrocytes)) (UniProt Q9QYC6)
GPR37 (rat, endogenous in astrocytes) (rat (endogenous in primary astrocytes)), sequence (Q9QYC6 27-603): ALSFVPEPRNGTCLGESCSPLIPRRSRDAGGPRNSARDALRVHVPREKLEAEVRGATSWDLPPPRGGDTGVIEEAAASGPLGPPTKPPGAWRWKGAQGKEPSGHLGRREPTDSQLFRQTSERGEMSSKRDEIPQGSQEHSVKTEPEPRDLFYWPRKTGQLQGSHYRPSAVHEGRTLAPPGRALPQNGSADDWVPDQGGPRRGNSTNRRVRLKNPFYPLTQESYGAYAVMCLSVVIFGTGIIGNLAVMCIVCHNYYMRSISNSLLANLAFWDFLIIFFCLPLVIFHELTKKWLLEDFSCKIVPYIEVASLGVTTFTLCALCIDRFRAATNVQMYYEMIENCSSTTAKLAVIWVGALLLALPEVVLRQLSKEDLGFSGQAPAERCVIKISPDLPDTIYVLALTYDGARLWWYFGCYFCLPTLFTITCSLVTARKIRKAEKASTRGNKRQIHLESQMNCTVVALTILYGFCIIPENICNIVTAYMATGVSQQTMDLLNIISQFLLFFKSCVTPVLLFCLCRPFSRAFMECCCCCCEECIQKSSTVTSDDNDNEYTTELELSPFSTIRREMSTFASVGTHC

[4] = target: GPR37L1 (rat, endogenous in astrocytes) (rat (endogenous in primary astrocytes)) (UniProt Q9QYC5)
GPR37L1 (rat, endogenous in astrocytes) (rat (endogenous in primary astrocytes)), sequence (Q9QYC5 25-481): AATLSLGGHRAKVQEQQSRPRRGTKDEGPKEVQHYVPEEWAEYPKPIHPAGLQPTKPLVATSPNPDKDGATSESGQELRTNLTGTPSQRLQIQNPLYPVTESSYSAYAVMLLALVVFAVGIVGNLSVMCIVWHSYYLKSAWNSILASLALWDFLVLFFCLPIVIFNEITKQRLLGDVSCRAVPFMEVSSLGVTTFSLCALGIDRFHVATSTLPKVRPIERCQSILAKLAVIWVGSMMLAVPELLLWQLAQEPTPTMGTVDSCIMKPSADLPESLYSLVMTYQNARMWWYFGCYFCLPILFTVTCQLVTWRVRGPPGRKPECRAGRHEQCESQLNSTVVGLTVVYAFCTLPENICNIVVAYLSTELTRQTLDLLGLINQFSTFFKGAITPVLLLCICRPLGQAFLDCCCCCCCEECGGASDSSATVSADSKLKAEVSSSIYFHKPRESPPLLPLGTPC

PSAP = assay: Immunodetection (Western blot) of PSAP in neuron-astrocyte co-culture media; format: cell-based, Wistar rat; conditions: H2O2 stress applied to neurons, Figure S9
GPR37L1/GPR37 = assay: Luminescence-based GloSensor cAMP assay in astrocytes; format: cell-based, Wistar rat; conditions: NKH477 1 μM, rat astrocytes
Procedure: The GloSensor assay uses genetically encoded biosensor variants with cAMP binding domains fused to mutant forms of Photinus pyralis luciferase. The luminescence of the reporter increases directly proportionally to the amount of cAMP present. Astrocytes were seeded in 96‐well plates and transduced with an AVV bearing the CMV‐driven GLO22F at multiplicity of infection (MOI) 10. After 24 hr transduction, media was exchanged for 100 μL HEPES‐buffered HBSS (pH 7.6). Cells were then incubated with 0.731 mM beetle luciferin for 2 hr in the dark. After baseline reading, NKH477 and/or TX14(A) were added to the wells and incubated for 20 min. Luminescence measurements were obtained using a Tecan microplate reader (Infinite M200 PRO).

neuroblastoma NS20 line [5] = target: neuroblastoma NS20 line; design: method as in O'Brien et al., 1994; conditions: radio-labeled Sap C, ref O'Brien et al., 1994, read-out: Kd of specific binding; cited from earlier work
neuroblastoma NS20 line [6] = tested on: neuroblastoma NS20 line; design: method as in O'Brien et al., 1994; conditions: ref O'Brien et al., 1994; cited from earlier work
receptor of ~54 kDa = conditions: ref Hiraiwa et al., 1997; cited from earlier work
gerbils = tested on: gerbils; design: method as in Sano et al., 1994; conditions: recombinant, chronic icv infusion, ref Sano et al., 1994; cited from earlier work

CN[C@@H]1C[C@H]2O[C@@](C)([C@@H]1OC)n1c3ccccc3c3c4c(c5c6ccccc6n2c5c31)C(=O)NC4 [staurosporine]
ability of astrocytes to close the wound (astrocytes [1]; staurosporine, 5 hr pre-exposure, 48 hr): drastically inhibited their ability to close the wound | cytotoxicity (LDH release) (primary astrocytes; staurosporine 200 nM): comparable degree of cytotoxicity

O=C(Nc1ncnc2c1ncn2[C@@H]1O[C@@H]2COP(=O)(O)O[C@H]2[C@H]1O)c1ccccc1 [6‐BenZ‐cAMP]
wound closure (astrocytes [1]; 6-benz-cAMP 250–1,000 μM, concentration-dependent): greatly slowed down wound closure | cell numbers (DAPI) vs control (astrocytes [2]; 6-BenZ-cAMP 500 μM): significantly decreased cell numbers as compared to control

prosaptide TX14(A) (peptide)
inhibition of NKH477 (1 μM)-raised cAMP in rat astrocytes, GloSensor luminescence, concentration-response of TX14(A); obliterated by combined knock-down of GPR37L1 and GPR37 [3]: 17.8 nM | percent inhibition of NKH477-mediated cAMP production in rat astrocytes at the maximal concentration of TX14(A) used (200 nM), GloSensor [3]: 40% | inhibition of NKH477 (1 μM)-raised cAMP in rat astrocytes, GloSensor luminescence, concentration-response of TX14(A); obliterated by combined knock-down of GPR37L1 and GPR37 [4]: 17.8 nM | percent inhibition of NKH477-mediated cAMP production in rat astrocytes at the maximal concentration of TX14(A) used (200 nM), GloSensor [4]: 40%

OO [H2O2]
ability of astrocytes to close the wound (astrocytes [1]; H2O2, 5 hr pre-exposure, 48 hr): drastically inhibited their ability to close the wound | PSAP in co-culture media (PSAP): increase in PSAP in co‐culture media in response to H2O2 stress | cytotoxicity (LDH release) (primary astrocytes; H2O2 250 μM): comparable degree of cytotoxicity

C=C[C@@]1(C)CC(=O)[C@]2(O)[C@@]3(C)[C@@H](O)CCC(C)(C)[C@@H]3[C@H](OC(=O)CCN(C)C)[C@H](OC(C)=O)[C@@]2(C)O1.Cl [NKH477]
increase of baseline cAMP levels (GPR37L1/GPR37): ~ 20 fold | cell numbers (DAPI) vs control (astrocytes [2]; NKH477 10 μM): significantly decreased cell numbers as compared to control

CO[C@@H]1[C@@H]2OP(=O)(O)OC[C@H]2O[C@H]1n1c(Sc2ccc(Cl)cc2)nc2c(N)ncnc21 [8‐pCPT‐2′‐O‐Me‐cAMP]
wound closure (astrocytes [1]; 8-pCPT-2′-O-Me-cAMP 250–1,000 μM): had no effect | cell numbers (DAPI) vs control (astrocytes [2]; 8-pCPT-2′-O-Me-cAMP 1,000 μM): significantly decreased cell numbers as compared to control

C=C(C)[C@H]1Cc2c(ccc3c2O[C@@H]2COc4cc(OC)c(OC)cc4[C@@H]2C3=O)O1 [rotenone]
cytotoxicity (LDH release) (primary astrocytes; rotenone 100 μM): comparable degree of cytotoxicity

B1: Sap C: Saposin C, fragment of prosaposin (protein, UniProt P07602 311-390, looked up)
Saposin-C: SDVYCEVCEFLVKEVTKLIDNNKTEKEILDAFDKMCSKLPKSLSEECQEVVDTYGSSILSILLEEVSPELVCSMLHLCSG
modifications: Saposin-C
notes: Saposin C, fragment of prosaposin
Kd (neuroblastoma NS20 line [5]): 19 pM | neurotrophic activity (neuroblastoma NS20 line [6]): identified as neurotrophic factors | interaction with receptor (molecular mass) (receptor of ~54 kDa): interacts with a receptor of ~54 kDa

B2: PSAP: prosaposin, neurotrophic factor, precursor of Saposin C (protein)
chain: SPVLGLRECTRGSAVWCQNVKTAADCGAVQHCLQTVWSKPTVKSLPCDICKDVITAAGNLLKDNATEQEILMYLERTCDWLPKPNMSASCKEIVDSYLPVILDMIKGQMSHPGEVCSALNLCESLQKHLAELNHQKQLESNQIPELDMAEVVAPFMANIPFLLYPQDGSHSKPQPKKANGNVCQDCIQLVTDVQEALRTNSTFVEALVDHAKEECDRLGPGMSDMCKNYINQYSEVAIQMVMHMQPKEICVLAGFCDEVKEMPMKTLVPAEVVSENVIPALGLVEPIKKDPAPAKADIYCEVCEFVVKEVAKLIDNNRTEEEILHALDKVCSKLPTSLAEQCQEVVDTYGSSILSILLDEASPELVCSMLHLCSSRGLPAATVRVMPRKDGGFCEVCKKLVGYLDRNLEKNSTKEQILAALEKGCSFLPDQYRKQCDQFVTEYEPVLIEILVEVMDPSFVCLKIGACPAAHKPLLGAEKCVWGPSYWCQNMESAALCNAVEHCRRHVWN
wound closure after PSAP depletion (astrocytes [1]; PSAP depleted by immunoadsorption vs FBS-containing media, 48 hr): drastically slowed down by PSAP depletion | number of cells in cultures (DAPI) (astrocytes [2]; TX14(A) 100 nM in PDM, or PSAP depletion, n = 15): neither depletion of PSAP nor addition of TX14(A) affected the number of cells in cultures | neurotrophic activity (neuroblastoma NS20 line [6]): identified as neurotrophic factors | ischemia-induced learning deficits and neuronal loss (gerbils): almost completely prevented ischemia‐induced learning deficits and neuronal loss

— paper PMC6492175, “Glio‐ and neuro‐protection by prosaposin is mediated by orphan G‐protein coupled receptors GPR37L1 and GPR37” (Glia, 2018)
